# Experimental data as given in ChEMBL document CHEMBL1135511, “Structure activity of 3-aryl-1,3-diketo-containing compounds as HIV-1 integrase inhibitors” (J Med Chem, 2002).
# Assays:
# [1] = target: T1, Human immunodeficiency virus type 1 integrase (Human immunodeficiency virus 1, UniProt Q7ZJM1)
# [2] = target: T1, Human immunodeficiency virus type 1 integrase; remark: listed apart in the source
# [3] = target: T1, Human immunodeficiency virus type 1 integrase; assay: Inhibitory effect on strand transfer of proximal DNA into host DNA in an extracellular HIV-1 integrase assay in experiment 1
# [4] = target: T1, Human immunodeficiency virus type 1 integrase; assay: Inhibitory effect on strand transfer of proximal DNA into host DNA in an extracellular HIV-1 integrase assay in experiment 2
# [5] = target: T1, Human immunodeficiency virus type 1 integrase; assay: Inhibitory effect on 3'-processing(3'-P) of proximal DNA in an extracellular HIV-1 integrase assay in experiment 2
# [6] = target: T1, Human immunodeficiency virus type 1 integrase; assay: Inhibitory effect on 3'-processing(3'-P) of proximal DNA in an extracellular HIV-1 integrase assay in experiment 1
# [7] = Inhibitory concentration by single cycle replication assay using envelope deficient HIV-1; assay type: functional, Homo sapiens
# T1 sequence (Q7ZJM1 whole entry): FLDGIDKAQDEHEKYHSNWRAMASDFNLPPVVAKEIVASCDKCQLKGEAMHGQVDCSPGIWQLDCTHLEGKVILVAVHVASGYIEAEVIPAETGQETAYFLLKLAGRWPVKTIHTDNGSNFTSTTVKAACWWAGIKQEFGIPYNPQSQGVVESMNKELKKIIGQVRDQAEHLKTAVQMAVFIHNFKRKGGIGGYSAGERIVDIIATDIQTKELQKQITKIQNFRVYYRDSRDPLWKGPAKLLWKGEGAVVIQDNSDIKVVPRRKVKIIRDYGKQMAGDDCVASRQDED
SMILES,IC50 [1],IC50 [2],also measured
O=C(CC(=O)c1c[nH]c2ccccc12)c1nnn[nH]1,,> 100 µM,IC50 [3]: 1.9 µM; IC50 [4]: 2 µM
O=C(O)C(=O)/C=C(\O)c1ccnc2ccccc12,> 100 µM,> 100 µM,
O=C(O)C(=O)/C=C(\O)c1cc(/C(O)=C/C(=O)C(=O)O)c2ccccc2n1,6.5 µM,82 µM,
O=C(O)C(=O)/C=C(\O)c1c[nH]c2ccc(Cl)cc12,0.52 µM,,
O=C(O)C(=O)/C=C(\O)c1ccc(/C(O)=C/C(=O)C(=O)O)cc1,1.28 µM,,IC50 [5]: 7.5 µM; IC50 [6]: 7.2 µM
O=C(O)C(=O)/C=C(\O)c1cccc(/C(O)=C/C(=O)C(=O)O)c1,1.83 µM,7.8 µM,
O=C(O)C(=O)/C=C(\O)c1cc(OCc2ccccc2)cc(OCc2ccccc2)c1,0.48 µM,> 1000 µM,IC50 [7]: 2.3 µM
O=C(O)C(=O)/C=C(\O)c1cccc(Br)c1,,> 100 µM,IC50 [3]: 2 µM; IC50 [4]: 3 µM
O=C(O)C(=O)/C=C(\O)c1cccc(NC(=O)c2ccccc2)c1,35 µM,> 100 µM,
O=C(O)C(=O)/C=C(\O)c1cccc(OCc2ccccc2)c1,0.35 µM,,IC50 [5]: 100 µM; IC50 [7]: 0.6 µM
O=C(O)C(=O)/C=C(\O)c1ccc(Oc2ccccc2)cc1,,> 100 µM,IC50 [3]: 7.8 µM; IC50 [4]: 15 µM

# Now from value to compound, other results behind:
IC50 [1],IC50 [2],SMILES,also measured
6.9 µM,> 100 µM,CCOC(=O)C(=O)/C=C(\O)c1c[nH]c2ccc(Cl)cc12,
> 100 µM,> 100 µM,COc1ccc(Cn2nnnc2C(=O)/C=C(\O)c2c[nH]c3ccccc23)cc1,
1.8 µM,79 µM,O=C(CC(=O)c1c[nH]c2ccc(F)cc12)c1nnn[nH]1,
40 µM,40 µM,O=C(O)c1ccc2[nH]cc(C(=O)CC(=O)c3nnn[nH]3)c2c1,
34 µM,> 100 µM,COc1ccc(Cn2nnnc2C(=O)/C=C(\O)c2c[nH]c3ccc(Cl)cc23)cc1,
> 100 µM,> 100 µM,COc1cc(Cn2nnnc2C(=O)/C=C(\O)c2c[nH]c3ccccc23)cc(OC)c1,
> 100 µM,> 100 µM,COc1ccc(Cn2nnnc2C(=O)/C=C(\O)c2cc(OCc3ccccc3)cc(OCc3ccccc3)c2)cc1,
1.43 µM,> 100 µM,O=C(O)C(=O)/C=C(\O)c1c[nH]c2ccccc12,
